# Laboratory results as given in US8183248B2, “Substituted pyrrolo[2,3-d]pyrimidines and compositions as protein kinase inhibitors” (IRM LLC, priority 2005, dated 2012).
# Experiments:
# Assay in all cases: Upstate KinaseProfiler radio-enzymatic filter binding assay
# Format in all cases: biochemical
# Abl(m) = biological target: T1, Abl(m) (Mus musculus, UniProt P00520); details: read-out: percentage inhibition Abl(m)
# T1 construct: purchased Upstate
# Protocol: (§1) Compounds of the invention are assessed for their ability to inhibit individual members of the kinase panel. The compounds are tested in duplicates at a final concentration of 10 μM following this generic protocol. Note that the kinase buffer composition and the substrates vary for the different kinases included in the “Upstate KinaseProfiler™” panel. Kinase buffer (2.5 μL, 10×—containing MnCl2 when required), active kinase (0.001-0.01 Units; 2.5 μL), specific or Poly(Glu4-Tyr) peptide (5-500 μM or 0.01 mg/ml) in kinase buffer and kinase buffer (50 μM; 5 μL) are mixed in an eppendorf on ice. A Mg/ATP mix (10 μL; 67.5 (or 33.75) mM MgCl2, 450 (or 225) μM ATP and 1 μCi/μl [γ-^32P]-ATP (3000 Ci/mmol)) is added and the reaction is incubated at about 30° C. for about 10 minutes. The reaction mixture is spotted (20 μL) onto a 2 cm×2 cm P81 (phosphocellulose, for positively charged peptide substrates) or Whatman No. 1 (for Poly (Glu4-Tyr) peptide substrate) paper square. The assay squares are washed 4 times, for 5 minutes each, with 0.75% phosphoric acid and washed once with acetone for 5 minutes. The assay squares are transferred to a scintillation vial, 5 ml scintillation cocktail are added and ^32P incorporation (cpm) to the peptide substrate is quantified with a Beckman scintillation counter. Percentage inhibition is calculated for each reaction.
# BTK(h) = biological target: T2, BTK(h) (Homo sapiens, UniProt Q06187); details: read-out: percentage inhibition BTK(h)
# T2 construct: purchased Upstate
# Protocol: as §1
# Bmx(h) = biological target: T3, Bmx(h) (Homo sapiens, UniProt P51813); details: read-out: percentage inhibition Bmx(h)
# T3 construct: purchased Upstate
# Protocol: as §1
# FGFR3(h) = biological target: T4, FGFR3(h) (Homo sapiens, UniProt P22607); details: read-out: percentage inhibition FGFR3(h)
# T4 construct: purchased Upstate
# Protocol: as §1
# Fes(h) = biological target: T5, Fes(h) (Homo sapiens, UniProt P07332); details: read-out: percentage inhibition Fes(h)
# T5 construct: purchased Upstate
# Protocol: as §1
# IKKα(h) = biological target: T6, IKKα(h) (Homo sapiens, UniProt O15111); details: read-out: percentage inhibition IKKα(h)
# T6 construct: purchased Upstate
# Protocol: as §1
# IKKβ(h) = biological target: T7, IKKβ(h) (Homo sapiens, UniProt O14920); details: read-out: percentage inhibition IKKβ(h)
# T7 construct: purchased Upstate
# Protocol: as §1
# JNK1α1(h) = biological target: T8, JNK1α1(h) (Homo sapiens, UniProt P45983); details: read-out: percentage inhibition JNK1α1(h)
# T8 construct: purchased Upstate
# Protocol: as §1
# JNK2α2(h) = biological target: T9, JNK2α2(h) (Homo sapiens, UniProt P45984); details: read-out: percentage inhibition JNK2α2(h)
# T9 construct: purchased Upstate
# Protocol: as §1
# MKK4(m) = biological target: T10, MKK4(m) (Mus musculus, UniProt P47809); details: read-out: percentage inhibition MKK4(m)
# T10 construct: purchased Upstate
# Protocol: as §1
# MKK6(h) = biological target: T11, MKK6(h) (Homo sapiens, UniProt P52564); details: read-out: percentage inhibition MKK6(h)
# T11 construct: purchased Upstate
# Protocol: as §1
# Met(h) = biological target: T12, Met(h) (Homo sapiens, UniProt P08581); details: read-out: percentage inhibition Met(h)
# T12 construct: purchased Upstate
# Protocol: as §1
# PAK2(h) = biological target: T13, PAK2(h) (Homo sapiens, UniProt Q13177); details: read-out: percentage inhibition PAK2(h)
# T13 construct: purchased Upstate
# Protocol: as §1
# PKCα(h) = biological target: T14, PKCα(h) (Homo sapiens, UniProt P17252); details: read-out: percentage inhibition PKCα(h)
# T14 construct: purchased Upstate
# Protocol: as §1
# PKD2(h) = biological target: T15, PKD2(h) (Homo sapiens, UniProt Q9BZL6); details: read-out: percentage inhibition PKD2(h)
# T15 construct: purchased Upstate
# Protocol: as §1
# Ros(h) = biological target: T16, Ros(h) (Homo sapiens, UniProt P08922); details: read-out: percentage inhibition Ros(h)
# T16 construct: purchased Upstate
# Protocol: as §1
# SAPK2a(h) = biological target: T17, SAPK2a(h) (Homo sapiens, UniProt Q16539); details: read-out: percentage inhibition SAPK2a(h)
# T17 construct: purchased Upstate
# Protocol: as §1
# SAPK3(h) = biological target: T18, SAPK3(h) (Homo sapiens, UniProt P53778); details: read-out: percentage inhibition SAPK3(h)
# T18 construct: purchased Upstate
# Protocol: as §1
# SGK(h) = biological target: T19, SGK(h) (Homo sapiens, UniProt O00141); details: read-out: percentage inhibition SGK(h)
# T19 construct: purchased Upstate
# Protocol: as §1
# Syk(h) = biological target: T20, Syk(h) (Homo sapiens, UniProt P43405); details: read-out: percentage inhibition Syk(h)
# T20 construct: purchased Upstate
# Protocol: as §1
# Tie2(h) = biological target: T21, Tie2(h) (Homo sapiens, UniProt Q02763); details: read-out: percentage inhibition Tie2(h)
# T21 construct: purchased Upstate
# Protocol: as §1
# c-RAF(h) = biological target: T22, c-RAF(h) (Homo sapiens, UniProt P04049); details: read-out: percentage inhibition c-RAF(h)
# T22 construct: purchased Upstate
# Protocol: as §1
# cSRC(h) = biological target: T23, cSRC(h) (Homo sapiens, UniProt P12931); details: read-out: percentage inhibition cSRC(h)
# T23 construct: purchased Upstate
# Protocol: as §1
# T17 sequence (Q16539 whole entry): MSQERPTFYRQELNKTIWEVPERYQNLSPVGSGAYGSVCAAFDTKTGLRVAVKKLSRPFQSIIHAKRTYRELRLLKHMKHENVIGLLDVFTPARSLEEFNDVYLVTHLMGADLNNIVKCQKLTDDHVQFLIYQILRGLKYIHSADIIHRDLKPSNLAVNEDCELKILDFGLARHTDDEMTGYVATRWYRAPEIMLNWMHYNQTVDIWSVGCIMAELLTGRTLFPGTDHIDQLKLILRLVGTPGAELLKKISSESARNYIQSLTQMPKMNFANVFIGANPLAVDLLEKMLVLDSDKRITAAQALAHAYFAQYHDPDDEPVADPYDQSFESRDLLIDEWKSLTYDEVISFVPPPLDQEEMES
# T5 sequence (P07332 whole entry): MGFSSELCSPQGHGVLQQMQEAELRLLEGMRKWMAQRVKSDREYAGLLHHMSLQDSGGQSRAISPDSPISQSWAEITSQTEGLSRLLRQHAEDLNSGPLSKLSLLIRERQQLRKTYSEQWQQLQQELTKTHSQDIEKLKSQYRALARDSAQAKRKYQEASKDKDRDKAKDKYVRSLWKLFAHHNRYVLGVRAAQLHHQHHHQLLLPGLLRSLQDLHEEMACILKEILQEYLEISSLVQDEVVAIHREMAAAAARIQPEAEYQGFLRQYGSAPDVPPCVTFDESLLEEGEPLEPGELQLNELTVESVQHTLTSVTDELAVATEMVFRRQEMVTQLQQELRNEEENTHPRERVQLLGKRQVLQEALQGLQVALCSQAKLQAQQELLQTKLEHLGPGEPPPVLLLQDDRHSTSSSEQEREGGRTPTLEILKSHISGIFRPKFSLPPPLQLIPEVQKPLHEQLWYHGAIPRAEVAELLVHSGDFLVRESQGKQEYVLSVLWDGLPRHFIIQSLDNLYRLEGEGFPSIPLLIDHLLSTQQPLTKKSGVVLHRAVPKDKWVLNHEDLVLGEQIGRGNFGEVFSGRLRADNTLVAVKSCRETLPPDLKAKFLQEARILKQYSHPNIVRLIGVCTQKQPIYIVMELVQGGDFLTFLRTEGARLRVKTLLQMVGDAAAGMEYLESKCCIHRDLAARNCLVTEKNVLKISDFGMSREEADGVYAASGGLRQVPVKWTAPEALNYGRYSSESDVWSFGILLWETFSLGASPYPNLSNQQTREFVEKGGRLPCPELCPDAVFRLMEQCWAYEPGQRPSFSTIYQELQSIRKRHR
# T10 sequence (P47809 whole entry): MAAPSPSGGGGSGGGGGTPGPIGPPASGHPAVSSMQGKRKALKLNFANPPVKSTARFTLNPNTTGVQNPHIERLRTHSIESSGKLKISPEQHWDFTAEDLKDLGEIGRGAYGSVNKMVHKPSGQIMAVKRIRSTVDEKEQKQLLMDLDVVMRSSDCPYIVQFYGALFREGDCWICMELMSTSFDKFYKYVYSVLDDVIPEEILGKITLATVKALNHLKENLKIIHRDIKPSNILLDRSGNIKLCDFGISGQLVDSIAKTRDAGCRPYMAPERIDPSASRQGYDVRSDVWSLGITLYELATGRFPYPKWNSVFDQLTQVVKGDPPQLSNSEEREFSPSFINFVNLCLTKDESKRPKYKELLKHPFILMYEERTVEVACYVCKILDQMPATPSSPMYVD
# T13 sequence (Q13177 whole entry): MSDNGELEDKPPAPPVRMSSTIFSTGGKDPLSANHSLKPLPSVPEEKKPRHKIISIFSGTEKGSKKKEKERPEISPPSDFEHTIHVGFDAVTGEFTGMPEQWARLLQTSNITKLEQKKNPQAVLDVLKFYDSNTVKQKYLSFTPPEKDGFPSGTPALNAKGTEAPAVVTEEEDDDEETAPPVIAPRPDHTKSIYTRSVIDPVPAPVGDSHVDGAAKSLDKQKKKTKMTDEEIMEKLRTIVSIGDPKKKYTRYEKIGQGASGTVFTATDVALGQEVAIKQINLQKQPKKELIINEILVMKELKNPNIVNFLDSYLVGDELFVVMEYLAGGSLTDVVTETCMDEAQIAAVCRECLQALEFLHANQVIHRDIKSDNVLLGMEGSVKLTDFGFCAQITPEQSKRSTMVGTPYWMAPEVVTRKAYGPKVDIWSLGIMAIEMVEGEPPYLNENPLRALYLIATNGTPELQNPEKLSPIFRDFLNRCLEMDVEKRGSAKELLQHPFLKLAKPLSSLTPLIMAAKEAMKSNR
# T7 sequence (O14920 whole entry): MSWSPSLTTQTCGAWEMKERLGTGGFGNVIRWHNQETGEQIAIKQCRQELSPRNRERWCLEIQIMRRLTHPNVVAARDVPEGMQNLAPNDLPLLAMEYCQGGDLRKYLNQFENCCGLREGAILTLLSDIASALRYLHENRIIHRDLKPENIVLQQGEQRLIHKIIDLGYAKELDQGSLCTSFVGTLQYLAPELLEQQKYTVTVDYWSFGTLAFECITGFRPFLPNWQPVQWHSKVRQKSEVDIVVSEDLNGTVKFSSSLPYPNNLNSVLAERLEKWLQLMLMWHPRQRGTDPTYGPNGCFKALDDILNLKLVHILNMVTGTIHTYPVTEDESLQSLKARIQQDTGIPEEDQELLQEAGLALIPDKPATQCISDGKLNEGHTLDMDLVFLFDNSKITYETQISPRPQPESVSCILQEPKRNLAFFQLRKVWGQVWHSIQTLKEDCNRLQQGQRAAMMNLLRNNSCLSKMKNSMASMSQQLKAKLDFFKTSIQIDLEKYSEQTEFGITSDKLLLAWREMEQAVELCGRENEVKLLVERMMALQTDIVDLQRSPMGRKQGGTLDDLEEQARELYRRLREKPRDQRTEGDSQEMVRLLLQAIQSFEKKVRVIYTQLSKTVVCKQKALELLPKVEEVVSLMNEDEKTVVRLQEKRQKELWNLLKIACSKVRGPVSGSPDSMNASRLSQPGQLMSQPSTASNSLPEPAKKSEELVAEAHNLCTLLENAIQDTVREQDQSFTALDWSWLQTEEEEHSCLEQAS
# T23 sequence (P12931 whole entry): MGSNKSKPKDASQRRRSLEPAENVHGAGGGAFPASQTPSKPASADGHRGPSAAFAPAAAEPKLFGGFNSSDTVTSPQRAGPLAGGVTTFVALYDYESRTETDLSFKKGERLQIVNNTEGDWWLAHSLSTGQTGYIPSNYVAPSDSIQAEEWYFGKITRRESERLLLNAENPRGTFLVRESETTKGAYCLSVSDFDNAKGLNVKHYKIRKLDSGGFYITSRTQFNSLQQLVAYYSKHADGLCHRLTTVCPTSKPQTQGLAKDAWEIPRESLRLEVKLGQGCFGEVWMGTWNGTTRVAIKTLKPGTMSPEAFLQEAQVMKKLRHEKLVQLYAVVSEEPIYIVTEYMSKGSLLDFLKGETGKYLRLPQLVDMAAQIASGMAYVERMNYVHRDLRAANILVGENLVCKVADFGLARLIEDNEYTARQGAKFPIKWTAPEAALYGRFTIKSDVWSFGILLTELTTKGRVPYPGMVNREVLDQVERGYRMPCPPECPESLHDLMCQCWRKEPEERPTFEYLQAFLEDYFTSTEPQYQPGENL
# T6 sequence (O15111 whole entry): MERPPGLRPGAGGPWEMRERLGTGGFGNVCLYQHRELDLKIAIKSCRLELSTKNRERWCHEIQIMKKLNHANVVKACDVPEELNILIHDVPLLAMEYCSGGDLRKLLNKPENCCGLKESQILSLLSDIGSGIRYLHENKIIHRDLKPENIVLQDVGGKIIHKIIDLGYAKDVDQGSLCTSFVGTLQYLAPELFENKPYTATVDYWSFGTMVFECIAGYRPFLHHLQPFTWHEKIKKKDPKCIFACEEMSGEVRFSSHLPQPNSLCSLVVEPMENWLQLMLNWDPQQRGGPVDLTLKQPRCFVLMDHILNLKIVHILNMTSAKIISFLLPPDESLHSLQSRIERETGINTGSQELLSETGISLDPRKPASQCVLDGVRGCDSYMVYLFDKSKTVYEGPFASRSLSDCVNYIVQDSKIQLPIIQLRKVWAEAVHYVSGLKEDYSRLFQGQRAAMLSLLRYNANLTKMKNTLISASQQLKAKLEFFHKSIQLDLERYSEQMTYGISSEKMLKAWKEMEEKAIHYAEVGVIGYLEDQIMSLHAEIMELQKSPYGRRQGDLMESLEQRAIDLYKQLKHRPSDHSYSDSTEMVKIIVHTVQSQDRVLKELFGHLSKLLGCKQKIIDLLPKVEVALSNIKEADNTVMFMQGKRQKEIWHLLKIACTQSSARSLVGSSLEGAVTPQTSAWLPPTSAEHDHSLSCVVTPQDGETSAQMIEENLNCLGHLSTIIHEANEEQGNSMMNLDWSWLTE
# T11 sequence (P52564 whole entry): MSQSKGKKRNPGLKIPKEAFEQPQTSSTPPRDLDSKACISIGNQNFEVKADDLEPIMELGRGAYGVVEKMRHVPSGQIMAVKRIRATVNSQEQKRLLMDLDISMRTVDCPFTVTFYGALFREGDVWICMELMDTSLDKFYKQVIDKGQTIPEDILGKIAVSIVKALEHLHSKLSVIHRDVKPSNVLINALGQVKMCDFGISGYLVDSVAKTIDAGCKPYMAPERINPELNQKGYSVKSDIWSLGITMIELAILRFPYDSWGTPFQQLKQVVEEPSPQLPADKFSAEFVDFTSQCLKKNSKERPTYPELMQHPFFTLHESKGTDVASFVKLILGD
# T18 sequence (P53778 whole entry): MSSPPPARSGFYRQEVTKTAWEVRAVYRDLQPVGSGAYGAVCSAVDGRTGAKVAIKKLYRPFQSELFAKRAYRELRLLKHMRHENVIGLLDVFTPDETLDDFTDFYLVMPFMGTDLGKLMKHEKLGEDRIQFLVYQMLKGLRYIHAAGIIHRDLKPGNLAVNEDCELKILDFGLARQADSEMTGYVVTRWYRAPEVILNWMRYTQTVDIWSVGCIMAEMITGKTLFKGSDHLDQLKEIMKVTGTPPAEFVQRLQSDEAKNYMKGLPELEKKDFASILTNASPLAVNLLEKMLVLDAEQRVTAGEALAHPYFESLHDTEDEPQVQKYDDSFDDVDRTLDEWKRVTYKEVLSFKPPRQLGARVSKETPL
smiles,measurement,setting,value
"CCN1CCN(Cc2ccc(NC(=O)c3ccc(C)c(NC(=O)N(C)c4ncnc5[nH]ccc45)c3)cc2C(F)(F)F)CC1 [Example 4, N-[4-(4-Ethyl-piperazin-1-ylmethyl)-3-trifluoromethyl-phenyl]-4-methyl-3-[3-methyl-3-(7H-pyrrolo[2,3-d]pyrimidin-4-yl)-ureido]-benzamide]",inhibition at 10 µM,Abl(m),98%
same,inhibition at 10 µM,BTK(h),99%
same,inhibition at 10 µM,Bmx(h),100%
same,inhibition at 10 µM,FGFR3(h),98%
same,inhibition at 10 µM,Fes(h),97%
same,inhibition at 10 µM,IKKα(h),98%
same,inhibition at 10 µM,IKKβ(h),96%
same,inhibition at 10 µM,JNK1α1(h),81%
same,inhibition at 10 µM,JNK2α2(h),99%
same,inhibition at 10 µM,MKK4(m),87%
same,inhibition at 10 µM,MKK6(h),98%
same,inhibition at 10 µM,Met(h),70%
same,inhibition at 10 µM,PAK2(h),62%
same,inhibition at 10 µM,PKCα(h),61%
same,inhibition at 10 µM,PKD2(h),94%
same,inhibition at 10 µM,Ros(h),62%
same,inhibition at 10 µM,SAPK2a(h),92%
same,inhibition at 10 µM,SAPK3(h),92%
same,inhibition at 10 µM,SGK(h),81%
same,inhibition at 10 µM,Syk(h),63%
same,inhibition at 10 µM,Tie2(h),98%
same,inhibition at 10 µM,c-RAF(h),97%
same,inhibition at 10 µM,cSRC(h),99%
